Experimental data: PubChem BioAssay (NCI)
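96-well plates; 48 h exposure; 5 concentrations. Endpoints by linear interpolation between flanking doses. Not reached: highest tested concentration assigned. The concentration for full growth arrest is given as TGI.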

Assays:
Test in all cases: DTP human tumour cell line panel, 48 h
NCI-H226 lung = tested on: NCI-H226 lung
OVCAR-5 ovarian = tested on: OVCAR-5 ovarian
NCI-H23 lung = tested on: NCI-H23 lung
K-562 leukemia = tested on: K-562 leukemia
U251 CNS = tested on: U251 CNS
MALME-3M melanoma = tested on: MALME-3M melanoma
UACC-257 melanoma = tested on: UACC-257 melanoma
HCT-15 colon = tested on: HCT-15 colon
NCI/ADR-RES ovarian = tested on: NCI/ADR-RES ovarian
NCI-H460 lung = tested on: NCI-H460 lung
HCC-2998 colon = tested on: HCC-2998 colon
COLO 205 colon = tested on: COLO 205 colon
NCI-H522 lung = tested on: NCI-H522 lung
SNB-75 CNS = tested on: SNB-75 CNS
SF-539 CNS = tested on: SF-539 CNS
HS 578T breast = tested on: HS 578T breast
MDA-N = tested on: MDA-N
CAKI-1 renal = tested on: CAKI-1 renal
BT-549 breast = tested on: BT-549 breast
HOP-92 NSCLC = tested on: HOP-92 NSCLC
M14 melanoma = tested on: M14 melanoma
SK-MEL-28 melanoma = tested on: SK-MEL-28 melanoma
SK-MEL-2 melanoma = tested on: SK-MEL-2 melanoma
CCRF-CEM leukemia = tested on: CCRF-CEM leukemia
A498 renal = tested on: A498 renal
OVCAR-8 ovarian = tested on: OVCAR-8 ovarian
SW-620 colon = tested on: SW-620 colon
EKVX NSCLC = tested on: EKVX NSCLC
RXF 393 renal = tested on: RXF 393 renal
MDA-MB-435 = tested on: MDA-MB-435
786-0 renal = tested on: 786-0 renal
UO-31 renal = tested on: UO-31 renal
ACHN renal = tested on: ACHN renal
SR leukemia = tested on: SR leukemia
SF-268 CNS = tested on: SF-268 CNS
SK-MEL-5 melanoma = tested on: SK-MEL-5 melanoma
TK-10 renal = tested on: TK-10 renal
RPMI-8226 leukemia = tested on: RPMI-8226 leukemia
MCF7 breast = tested on: MCF7 breast
PC-3 prostate = tested on: PC-3 prostate
MOLT-4 leukemia = tested on: MOLT-4 leukemia
DU-145 prostate = tested on: DU-145 prostate
IGROV1 ovarian = tested on: IGROV1 ovarian
HCT-116 colon = tested on: HCT-116 colon
UACC-62 melanoma = tested on: UACC-62 melanoma
SN12C renal = tested on: SN12C renal
HOP-62 NSCLC = tested on: HOP-62 NSCLC
A549 NSCLC = tested on: A549 NSCLC
T-47D breast = tested on: T-47D breast
SF-295 CNS = tested on: SF-295 CNS
SK-OV-3 ovarian = tested on: SK-OV-3 ovarian
KM12 colon = tested on: KM12 colon
OVCAR-4 ovarian = tested on: OVCAR-4 ovarian
SNB-19 CNS = tested on: SNB-19 CNS
HL-60(TB) leukemia = tested on: HL-60(TB) leukemia
OVCAR-3 ovarian = tested on: OVCAR-3 ovarian
MDA-MB-231 breast = tested on: MDA-MB-231 breast
HT29 colon = tested on: HT29 colon
LOX IMVI melanoma = tested on: LOX IMVI melanoma

Cc1ccc(NCCN(C)C)c2c(=O)c3cc(O)ccc3oc12
TGI (NCI-H226 lung): 29.5 µM
TGI (OVCAR-5 ovarian): 29.1 µM
TGI (NCI-H23 lung): 25.6 µM
TGI (K-562 leukemia): 12.3 µM
TGI (U251 CNS): 21 µM
TGI (MALME-3M melanoma): 27.3 µM
TGI (UACC-257 melanoma): 32.7 µM
TGI (HCT-15 colon): 21.2 µM
TGI (NCI/ADR-RES ovarian): 24.3 µM
TGI (NCI-H460 lung): 15 µM
TGI (HCC-2998 colon): 24.3 µM
TGI (COLO 205 colon): 24.2 µM
TGI (NCI-H522 lung): 21.7 µM
TGI (SNB-75 CNS): 16 µM
TGI (SF-539 CNS): 20.5 µM
TGI (HS 578T breast): 19.9 µM
TGI (MDA-N): 23 µM
TGI (CAKI-1 renal): 22.9 µM
TGI (BT-549 breast): 30.6 µM
TGI (HOP-92 NSCLC): 23.4 µM
TGI (M14 melanoma): 25.3 µM
TGI (SK-MEL-28 melanoma): 28.4 µM
TGI (SK-MEL-2 melanoma): 35.4 µM
TGI (CCRF-CEM leukemia): 16 µM
TGI (A498 renal): 28.2 µM
TGI (OVCAR-8 ovarian): 19.7 µM
TGI (SW-620 colon): 17 µM
TGI (EKVX NSCLC): 29.2 µM
TGI (RXF 393 renal): 24.4 µM
TGI (MDA-MB-435): 24.4 µM
TGI (786-0 renal): 18.3 µM
TGI (UO-31 renal): 22.1 µM
TGI (ACHN renal): 17.6 µM
TGI (SR leukemia): 3.35 µM
TGI (SF-268 CNS): 17.7 µM
TGI (SK-MEL-5 melanoma): 24 µM
TGI (TK-10 renal): 27.9 µM
TGI (RPMI-8226 leukemia): 34.3 µM
TGI (MCF7 breast): 19.6 µM
TGI (PC-3 prostate): 24.2 µM
TGI (MOLT-4 leukemia): 11.7 µM
TGI (DU-145 prostate): 28.3 µM
TGI (IGROV1 ovarian): 24.9 µM
TGI (HCT-116 colon): 17.2 µM
TGI (UACC-62 melanoma): 23 µM
TGI (SN12C renal): 20.2 µM
TGI (HOP-62 NSCLC): 23.3 µM
TGI (A549 NSCLC): 20.9 µM
TGI (T-47D breast): 31.5 µM
TGI (SF-295 CNS): 23 µM
TGI (SK-OV-3 ovarian): 26.4 µM
TGI (KM12 colon): 25 µM
TGI (OVCAR-4 ovarian): 31.3 µM
TGI (SNB-19 CNS): 23.7 µM
TGI (HL-60(TB) leukemia): 19.4 µM
TGI (OVCAR-3 ovarian): 30.8 µM
TGI (MDA-MB-231 breast): 22.2 µM
TGI (HT29 colon): 23.7 µM
TGI (LOX IMVI melanoma): 22.2 µM

Cc1noc(C)c1-n1nc2ccc3nonc3c2n1
TGI (NCI-H226 lung): > 100 µM
TGI (OVCAR-5 ovarian): > 100 µM
TGI (NCI-H23 lung): > 100 µM
TGI (K-562 leukemia): > 100 µM
TGI (U251 CNS): > 75.4 µM
TGI (MALME-3M melanoma): > 100 µM
TGI (UACC-257 melanoma): > 100 µM
TGI (HCT-15 colon): > 100 µM
TGI (NCI/ADR-RES ovarian): > 100 µM
TGI (NCI-H460 lung): > 100 µM
TGI (HCC-2998 colon): > 100 µM
TGI (COLO 205 colon): > 100 µM
TGI (NCI-H522 lung): > 100 µM
TGI (SNB-75 CNS): > 82.4 µM
TGI (SF-539 CNS): > 71.4 µM
TGI (HS 578T breast): > 88.1 µM
TGI (MDA-N): > 100 µM
TGI (CAKI-1 renal): > 100 µM
TGI (BT-549 breast): > 100 µM
TGI (HOP-92 NSCLC): > 86.4 µM
TGI (M14 melanoma): > 100 µM
TGI (SK-MEL-28 melanoma): > 100 µM
TGI (SK-MEL-2 melanoma): > 100 µM
TGI (CCRF-CEM leukemia): > 100 µM
TGI (A498 renal): 66.8 µM
TGI (OVCAR-8 ovarian): > 100 µM
TGI (SW-620 colon): > 100 µM
TGI (EKVX NSCLC): > 92.4 µM
TGI (RXF 393 renal): 51.5 µM
TGI (MDA-MB-435): > 100 µM
TGI (786-0 renal): > 93 µM
TGI (UO-31 renal): > 100 µM
TGI (ACHN renal): > 100 µM
TGI (SR leukemia): > 100 µM
TGI (SF-268 CNS): > 100 µM
TGI (SK-MEL-5 melanoma): > 100 µM
TGI (TK-10 renal): > 82 µM
TGI (RPMI-8226 leukemia): > 100 µM
TGI (MCF7 breast): > 100 µM
TGI (PC-3 prostate): > 100 µM
TGI (MOLT-4 leukemia): > 100 µM
TGI (DU-145 prostate): > 100 µM
TGI (IGROV1 ovarian): > 100 µM
TGI (HCT-116 colon): > 100 µM
TGI (UACC-62 melanoma): > 100 µM
TGI (SN12C renal): > 100 µM
TGI (HOP-62 NSCLC): 59.7 µM
TGI (A549 NSCLC): > 100 µM
TGI (T-47D breast): > 100 µM
TGI (SF-295 CNS): 98.6 µM
TGI (SK-OV-3 ovarian): > 73.4 µM
TGI (KM12 colon): > 100 µM
TGI (OVCAR-4 ovarian): > 100 µM
TGI (SNB-19 CNS): > 76.4 µM
TGI (HL-60(TB) leukemia): > 100 µM
TGI (OVCAR-3 ovarian): > 100 µM
TGI (MDA-MB-231 breast): > 100 µM
TGI (HT29 colon): > 100 µM
TGI (LOX IMVI melanoma): > 100 µM
